# Results as given in ChEMBL document CHEMBL1201862, “PubChem BioAssay data set” (2004).
# Active and inactive are the calls of the source.
# What was measured:
# [1] = target: T1, Heat shock factor protein 1 (Mus musculus, UniProt P38532); experiment: inhibition of MG132-induced HSE-luciferase signal, confirmation, cell-based, NIH3T3, luminescence, dose retest (AID 2382); format: functional;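 note: NIH3T3 fibroblasts with HSF1-driven luciferase reporter stressed by proteasome inhibitor MG132; luminescence from HSF1-driven luciferase expression after 8 hours of MG132 stress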
# T1 sequence (P38532 whole entry): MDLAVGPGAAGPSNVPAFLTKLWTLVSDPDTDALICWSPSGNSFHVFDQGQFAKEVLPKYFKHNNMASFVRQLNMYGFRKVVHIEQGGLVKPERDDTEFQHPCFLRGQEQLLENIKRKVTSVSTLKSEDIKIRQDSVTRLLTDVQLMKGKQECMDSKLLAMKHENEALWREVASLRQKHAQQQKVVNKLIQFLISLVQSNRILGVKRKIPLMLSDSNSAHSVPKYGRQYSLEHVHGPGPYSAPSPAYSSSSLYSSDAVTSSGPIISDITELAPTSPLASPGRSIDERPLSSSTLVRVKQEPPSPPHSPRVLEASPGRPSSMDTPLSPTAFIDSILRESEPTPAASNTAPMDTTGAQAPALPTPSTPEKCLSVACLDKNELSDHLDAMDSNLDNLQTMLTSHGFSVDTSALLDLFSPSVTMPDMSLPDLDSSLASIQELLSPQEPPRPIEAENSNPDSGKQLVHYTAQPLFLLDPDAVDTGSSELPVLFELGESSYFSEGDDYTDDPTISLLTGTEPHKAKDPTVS
# [2] = target: T2, Corticotropin-releasing factor receptor 2/Corticotropin-releasing factor-binding protein (Homo sapiens, UniProt P24387+Q13324); experiment: activators of CRF receptor 2 with binding protein – uHTS hits, confirmation (AID 602473); format: functional; settings: read-out: EC50_Mean
# T2 sequence (Q13324 whole entry): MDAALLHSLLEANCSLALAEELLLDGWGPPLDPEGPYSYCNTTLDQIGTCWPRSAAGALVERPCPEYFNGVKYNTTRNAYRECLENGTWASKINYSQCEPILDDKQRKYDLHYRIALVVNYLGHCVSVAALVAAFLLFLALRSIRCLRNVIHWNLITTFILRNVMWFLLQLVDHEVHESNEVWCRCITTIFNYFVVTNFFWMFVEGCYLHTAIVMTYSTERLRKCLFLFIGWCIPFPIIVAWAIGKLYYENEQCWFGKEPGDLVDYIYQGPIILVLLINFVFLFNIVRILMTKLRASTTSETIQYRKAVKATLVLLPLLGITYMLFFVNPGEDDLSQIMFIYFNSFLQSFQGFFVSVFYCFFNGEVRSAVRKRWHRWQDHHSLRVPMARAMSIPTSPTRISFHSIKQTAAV
# T2 sequence (P24387 whole entry): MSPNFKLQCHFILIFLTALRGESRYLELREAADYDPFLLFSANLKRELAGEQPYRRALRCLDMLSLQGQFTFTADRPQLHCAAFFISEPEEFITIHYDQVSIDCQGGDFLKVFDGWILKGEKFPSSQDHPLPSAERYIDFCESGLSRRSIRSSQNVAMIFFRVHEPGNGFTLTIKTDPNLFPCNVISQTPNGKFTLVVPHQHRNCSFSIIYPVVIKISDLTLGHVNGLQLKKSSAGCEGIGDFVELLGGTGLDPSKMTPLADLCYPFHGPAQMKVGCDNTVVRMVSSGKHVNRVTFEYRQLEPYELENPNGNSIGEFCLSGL
# [3] = target: T2, Corticotropin-releasing factor receptor 2/Corticotropin-releasing factor-binding protein; experiment: Dose Response confirmation of uHTS hits for small molecule antagonists of the CRF-binding protein and CRF-R2 receptor complex.; format: functional; settings: read-out: IC50_Mean
# [4] = Luminescence Cell-Based Dose Retest to Confirm Inhibitors of Cancer Stem Cells. [Related pubchem assays (depositor defined):AID2717, AID2721]; format: functional; settings: Homo sapiens
# Streptococcus = experiment: Group A Streptococcus viability loss, dose response, counter-screen for streptokinase expression inhibitor project, luminescence, BacTiterGlo (AID 1915); format: functional, organism-based;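 note: potency for reduction of bacterial viability or growth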
# [5] = test system: Streptococcus sp. 'group A'; experiment: growth inhibition of control SK(-) GAS strain, dose response, counter-screen for streptokinase expression inhibitor project, luminescence, kanamycin, BacTiterGlo, confirmation (AID 1900); format: functional, organism-based
# Streptokinase A = target: T3, Streptokinase A (Streptococcus pyogenes serotype M1, UniProt P10520); experiment: S. pyogenes streptokinase expression inhibitors, potency, dose response, plasminogen activation absorbance, OD405 (AID 1914); format: functional, Streptococcus pyogenes M1 GAS;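 note: secreted streptokinase activity via plasminogen activation per viability signal from cell pellet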
# T3 sequence (P10520 whole entry): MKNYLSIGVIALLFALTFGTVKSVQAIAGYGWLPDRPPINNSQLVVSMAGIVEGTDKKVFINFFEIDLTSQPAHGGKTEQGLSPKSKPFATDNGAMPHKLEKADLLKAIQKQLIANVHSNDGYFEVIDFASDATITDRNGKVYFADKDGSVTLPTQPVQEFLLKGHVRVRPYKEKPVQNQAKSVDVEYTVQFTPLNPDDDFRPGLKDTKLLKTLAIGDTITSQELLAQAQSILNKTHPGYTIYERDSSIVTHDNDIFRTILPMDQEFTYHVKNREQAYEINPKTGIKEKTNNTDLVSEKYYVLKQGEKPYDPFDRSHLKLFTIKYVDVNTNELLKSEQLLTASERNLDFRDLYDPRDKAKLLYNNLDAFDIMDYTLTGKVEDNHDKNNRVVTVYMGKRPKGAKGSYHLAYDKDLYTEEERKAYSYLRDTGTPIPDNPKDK
# [6] = target: FAD-linked sulfhydryl oxidase ALR (Homo sapiens, UniProt P55789); experiment: inhibitors of human ALR sulfhydryl oxidase, dose response, biochemical, H2O2 detection, luminescence, cherry-pick (AID 493248)
# [7] = target: T4, Rac GTPase-activating protein 1 (Homo sapiens, UniProt Q9H0H5); experiment: MgcRacGAP GTPase-activating activity inhibitors, confirmation, biochemical, ADP Hunter fluorescence, primary and confirmatory (AID 624330); format: functional
# T4 sequence (Q9H0H5 whole entry): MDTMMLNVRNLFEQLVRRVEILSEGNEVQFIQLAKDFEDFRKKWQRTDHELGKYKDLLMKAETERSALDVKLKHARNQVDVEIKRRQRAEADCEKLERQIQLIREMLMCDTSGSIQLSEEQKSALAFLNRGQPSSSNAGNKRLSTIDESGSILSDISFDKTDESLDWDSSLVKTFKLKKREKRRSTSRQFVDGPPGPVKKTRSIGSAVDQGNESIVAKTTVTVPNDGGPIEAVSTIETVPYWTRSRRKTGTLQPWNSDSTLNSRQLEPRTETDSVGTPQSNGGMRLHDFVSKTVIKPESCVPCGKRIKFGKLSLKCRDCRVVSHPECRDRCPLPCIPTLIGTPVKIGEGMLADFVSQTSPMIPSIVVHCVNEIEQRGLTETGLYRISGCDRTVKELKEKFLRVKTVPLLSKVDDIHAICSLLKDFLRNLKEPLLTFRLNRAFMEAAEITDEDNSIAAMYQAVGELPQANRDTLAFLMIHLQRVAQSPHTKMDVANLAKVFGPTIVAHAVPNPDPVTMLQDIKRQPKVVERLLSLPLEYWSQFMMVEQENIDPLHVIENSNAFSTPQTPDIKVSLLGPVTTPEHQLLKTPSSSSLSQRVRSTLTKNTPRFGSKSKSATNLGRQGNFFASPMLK
# [8] = cytotoxicity toward NIH3T3 fibroblasts, dose response, counter-screen, cell-based, ATP luminescence, mouse fibroblasts (AID 2010); format: functional;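 note: cells exposed to compound for about 90 hours before reading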
# [9] = inhibitors of intracellular T. cruzi replication, confirmation, NIH3T3 host cells, beta-gal luminescence (AID 2044); format: functional, cell-based;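 note: intracellular parasites grown in NIH/3T3 mouse fibroblasts as host cells; luminescent beta-galactosidase reporter signal from transgenic T. cruzi replicating inside host cells; inhibitors lower the luminescence signal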
# INS1 = experiment: beta cell apoptosis inhibitors, cytokine rescue, dose response, luminescence, retest (AID 449756); format: functional, cell-based; settings: Rattus norvegicus;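 note: cell death triggered by IL-1 beta plus TNF-alpha plus IFN-gamma mixture; protective hits raise ATP signal compared with cytokine alone wells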
# [10] = Shn3 3'UTR reporter inhibitors, dose response, cell-based, Clone20 osteoblasts, firefly luciferase, cherry-picked (AID 624132); format: functional;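 note: firefly luciferase luminescence from reporter carrying the Shn3 3'UTR in osteoblasts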
# [11] = P. falciparum Dd2 growth inhibitors, dose response, SYBR Green, cherry-picked samples (AID 1159567); format: functional, cell-based
# Sequence of FAD-linked sulfhydryl oxidase ALR (P55789 whole entry): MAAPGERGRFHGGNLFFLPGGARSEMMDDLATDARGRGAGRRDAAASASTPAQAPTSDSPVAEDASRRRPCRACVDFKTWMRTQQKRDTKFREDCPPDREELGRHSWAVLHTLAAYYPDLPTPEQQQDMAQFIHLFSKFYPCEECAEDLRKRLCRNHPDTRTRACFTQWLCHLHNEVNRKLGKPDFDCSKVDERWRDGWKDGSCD
compound,measurement,setting,value
CC(C)(C)c1ccc(/C=C2\SC(=O)N(CCNC(=O)c3cccc(S(=O)(=O)N4CCOCC4)c3)C2=O)cc1,EC50,[1],2.43 µM (active)
CCOC(=O)C1CCCN(C2CC(=O)N(c3ccccc3)C2=O)C1 (centres undefined),EC50,[2],> 53 µM (inactive)
same,IC50,[3],> 47.1 µM (inactive)
FC(F)(F)c1cccc(Nc2ncnc3ccccc23)c1,AC50,[4],1.43 µM (active)
CN1C(=O)NC(c2ccccc2)(C(F)(F)F)S/C1=C(/C#N)c1nnc(N2CCOCC2)n1-c1ccccc1 (centres undefined),EC50,Streptococcus,> 150 µM (not active)
same,EC50,[5],> 150 µM (not active)
same,EC50,Streptokinase A,> 150 µM (not active)
same,EC50,[2],> 53 µM (inactive)
same,IC50,[3],> 47.1 µM (inactive)
CC(C)C(=O)Nc1ccc(C(=O)N2CCN(C(=O)c3ccco3)CC2)cc1,EC50,[1],> 195 µM (not active)
CSCc1ccc(C(=O)NC(C)c2cnn(-c3ccccn3)c2C)o1 (centres undefined),AC50,[6],9.51 µM (active)
CN(C(=O)c1ccccc1C(=O)OCC(=O)Nc1ccc(S(N)(=O)=O)cc1)c1ccccc1,EC50,[1],> 195 µM (not active)
CCc1sc(C(=O)NCCc2ccc(S(N)(=O)=O)cc2)cc1Br,EC50,[2],> 53 µM (inactive)
same,IC50,[3],> 47.1 µM (inactive)
Cn1c(-c2ccccc2)cnc1NCc1ccc(-c2ccccc2)cc1,AC50,[4],1.34 µM (active)
same,IC50,[7],78.1 µM (active)
COc1ccc(C2NC(=O)C(C#N)=C(S)N2c2ccccc2)cc1OC (centres undefined),AC50,[6],< 0.014 µM (active)
CC1CCC(NC(=O)Nc2cccs2)CC1 (centres undefined),AC50,[6],1.18 µM (active)
Fc1ccc(N2CCN(Cc3ccccn3)CC2)cc1,AC50,[6],8.77 µM (active)
C/[N+]([O-])=C\C1C(=O)CC(C)(C)CC1=O,EC50,[1],> 195 µM (not active)
same,EC50,[2],> 53 µM (inactive)
same,IC50,[3],> 47.1 µM (inactive)
COC(=O)Nc1ccc(S(=O)(=O)N2CCC(C(=O)N(C)C3CCCCC3)CC2)cc1,AC50,[6],1.92 µM (active)
COc1ccc(-c2nc3ccc(C)cn3c2NCc2ccccc2)cc1SC1CCCCC1,EC50,[8],> 60 µM (not active)
same,EC50,[9],1.2 µM (active)
same,AC50,INS1,2.61 µM (active)
CN(Cc1ccccc1)S(=O)(=O)c1nnc(NC(=O)c2ccc(F)cc2)s1,EC50,[2],> 53 µM (inactive)
same,IC50,[3],< 0.368 µM (active)
O=C1Nc2ccccc2N(O)N1c1cc(-c2cccc(Cl)c2)no1,AC50,[6],1.92 µM (active)
same,EC50,[2],6.32 µM (active)
same,IC50,[3],> 47.1 µM (inactive)
COc1ccc(NC2CCCN(C(=O)CCc3ccccc3F)C2)cc1 (centres undefined),AC50,[6],13.4 µM (active)
same,IC50,[7],65.4 µM (active)
COc1ccc(C(=O)Nc2ccc3c(c2)nc(CN2CCCC2)n3C)cc1,EC50,[1],> 195 µM (not active)
COC(=O)c1ccc(NC(=O)NC2CCCCC2)cc1,EC50,[1],> 195 µM (not active)
O=C(Cc1ccc(-n2cccc2)cc1)N1CCN(c2ccccc2F)CC1,EC50,[2],> 53 µM (inactive)
same,IC50,[3],> 47.1 µM (inactive)
Cc1ccc([N+](=O)[O-])cc1N(CC(=O)Nc1ccc(S(=O)(=O)Nc2cccc(C(F)(F)F)c2)cc1)S(C)(=O)=O,EC50,[8],> 60 µM (not active)
same,EC50,[9],1.86 µM (active)
same,AC50,[4],3.7 µM (active)
same,AC50,INS1,2.56 µM (active)
Cc1ccnc(NC(=O)CS(=O)(=O)c2ccccc2)c1,EC50,[1],> 195 µM (not active)
NS(=O)(=O)c1ccc(CNC(=O)c2cnccn2)cc1,EC50,[1],> 195 µM (not active)
O=C(NNC(=O)c1ccccc1OCc1ccc(F)cc1)c1ccccc1O,EC50,Streptococcus,3.62 µM (active)
same,EC50,[5],3.68 µM (active)
same,AC50,INS1,2.67 µM (active)
COc1ccccc1OCCCCOc1ccccc1C(C)=O,AC50,INS1,12 µM (active)
Cc1ccsc1C(=O)NNC(=O)CCN1CCN(c2ccccc2)CC1,AC50,[6],4.88 µM (active)
Cc1ccc(NC2CCCN(C(=O)c3cc4ncccn4n3)C2)cc1C (centres undefined),AC50,[6],4.14 µM (active)
COc1ccc(NC(=O)N(C)C[C@H]2Oc3c(NS(=O)(=O)c4ccc(F)cc4)cccc3C(=O)N([C@H](C)CO)C[C@@H]2C)cc1,AC50,INS1,> 260 µM (inactive)
C=C1CCN([C@@H](CC(C)C)C(=O)Nc2nc3ccc(Cl)cc3s2)S(=O)(=O)c2ccccc21,AC50,[4],5.19 µM (active)
COc1ccc(S(=O)(=O)N(CC(C)C)C2CCS(=O)(=O)C2)cc1OC (centres undefined),EC50,[2],> 53 µM (inactive)
same,IC50,[3],> 47.1 µM (inactive)
O=C(O)C1(Nc2ccccc2Cl)CCCC1,AC50,[10],29.5 µM (active)
COc1cc(/C=N/NC(=O)c2ccc(O)nn2)ccc1O,AC50,[6],1.22 µM (active)
same,IC50,[7],23.9 µM (active)
C/C=C/c1ccc2c(c1)[C@H]1[C@H](CCN1C(=O)c1ccc3c(c1)OCO3)[C@H](CO)N2,AC50,[11],6.34 µM (active)
C[C@H](CO)N1C[C@H](C)[C@@H](CN(C)C(=O)c2ccccc2F)Oc2ncc(C#Cc3ccccc3)cc2C1=O,AC50,[11],4.79 µM (active)
C[C@H]1CN([C@@H](C)CO)C(=O)c2c(c3ccccc3n2C)-c2ccccc2CO[C@@H]1CN(C)C(=O)Nc1cccc(F)c1,AC50,[11],5.29 µM (active)
